Assay results published in patent publication US7829665B2 (priority 2005, dated 2010).
Read-outs that look alike come from different tables or passages of the source.

Legend:
[1] = biological target: T1, full-length NS3/NS4A-2 (HCV NS3 protease) (Hepatitis C virus genotype 1a, UniProt P27958); experiment: NS3-NS4 protease assay / NS3 inhibition assay (RETS1 substrate, fluorescence kinetic read); format: biochemical
T1 construct: Recombinant E. coli or Baculovirus full-length NS3 was diluted to 3.33 μM with assay buffer; made in house; host or cells: E. coli or baculovirus (BV) expression system
How it was run: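 Full-length NS3 from E. coli (2 nM in assay) or baculovirus (3 nM) was precomplexed with excess NS4A-2 peptide, then preincubated 10 min at room temperature with serially diluted compounds starting at 50 microM. Reaction was started with RETS1 substrate at 8 μM before addition and read kinetically for 30 min (ex 335/em 495 nm). Four-parameter IC50s were converted to Ki by Cheng-Prusoff using Km 2.03 μM (E. coli) or 1.74 μM (BV).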

[2] = system: HCV sub-genomic replicon in GS4.3 cells (HuH-7 hepatoma cells); experiment: Quantitation by ELISA of Neomycin phosphotransferase II (NPTII) in the HCV sub-genomic replicon, GS4.3; format: cell-based, hepatitis C virus; conditions: Hepatitis C virus, Huh-7; GS4.3 cells, 72 h incubation, NPTII ELISA; read-out: Replicon EC50
Method: The HCV sub-genomic replicon (1377/NS3-3′, accession No. AJ242652), stably maintained in HuH-7 hepatoma cells, was created by Lohmann et al. Science 285: 110-113 (1999). The replicon-containing cell culture, designated GS4.3, was obtained from Dr. Christoph Seeger of the Institute for Cancer Research, Fox Chase Cancer Center, Philadelphia, Pa.
GS4.3 cells were maintained at 37° C., 5% CO2, in DMEM (Gibco 11965-092) supplemented with L-glutamine 200 mM (100×) (Gibco25030-081), non-essential amino acids (NEAA) (Biowhittaker 13-114E), heat-inactivated (HI) Fetal Bovine Serum (FBS) (Hyclone SH3007.03) and 750 μg/ml geneticin (G418) (Gibco 10131-035). Cells were sub-divided 1:3 or 4 every 2-3 days.
24 h prior to the assay, GS4.3 cells were collected, counted, and plated in 96-well plates (Costar 3585) at 7500 cells/well in 100 μl standard maintenance medium (above) and incubated in the conditions above. To initiate the assay, culture medium was removed, cells were washed once with PBS (Gibco 10010-023) and 90 μl Assay Medium (DMEM, L-glutamine, NEAA, 10% HI FBS, no G418) was added. Inhibitors were made as a 10× stock in Assay Medium, (3-fold dilutions from 10 μM to 56 pM final concentration, final DMSO concentration 1%), 10 μl were added to duplicate wells, plates were rocked to mix, and incubated as above for 72 h.
An NPTII Elisa kit was obtained from AGDIA, Inc. (Compound direct ELISA test system for Neomycin Phosphotransferase II, PSP 73000/4800). Manufacturer's instructions were followed, with some modifications. 10×PEB-1 lysis buffer was made up to include 500 μM PMSF (Sigma P7626, 50 mM stock in isopropanol). After 72 h incubation, cells were washed once with PBS and 150 μl PEB-1 with PMSF was added per well. Plates were agitated vigorously for 15 minutes, room temperature, then frozen at −70° C. Plates were thawed, lysates were mixed thoroughly, and 100 μl were applied to an NPTII Elisa plate. A standard curve was made. Lysate from DMSO-treated control cells was pooled, serially diluted with PEB-1 with PMSF, and applied to duplicate wells of the ELISA plate, in a range of initial lysate amount of 150 ul-2.5 ul. In addition, 100 μl buffer alone was applied in duplicate as a blank. Plates were sealed and gently agitated at room temperature for 2 h. Following capture incubation, the plates were washed 5×300 μl with PBS-T (0.5% Tween-20, PBS-T was supplied in the ELISA kit). For detection, a 1× dilution of enzyme conjugate diluent MRS-2 (5×) was made in PBS-T, into which 1:100 dilutions of enzyme conjugates A and B were added, as per instructions. Plates were resealed, and incubated with agitation, covered, room temperature, for 2 h. The washing was then repeated and 100 μl of room temperature TMB substrate was added. After approximately 30 minutes incubation (room temperature, agitation, covered), the reaction was stopped with 50 μl 3M sulfuric acid. Plates were read at 450 nm on a Molecular Devices Versamax plate reader.
Inhibitor effect was expressed as a percentage of DMSO-treated control signal, and inhibition curves were calculated using a 4-parameter equation: y=A+((B−A)/(1+((C/x)^D))), where C is half-maximal activity or EC50.

[3] = recombinant E. coli or Baculovirus full-length NS3 with NS4A-2, read-out: NS3-NS4 IC50

T1 sequence (P27958 1027-1657): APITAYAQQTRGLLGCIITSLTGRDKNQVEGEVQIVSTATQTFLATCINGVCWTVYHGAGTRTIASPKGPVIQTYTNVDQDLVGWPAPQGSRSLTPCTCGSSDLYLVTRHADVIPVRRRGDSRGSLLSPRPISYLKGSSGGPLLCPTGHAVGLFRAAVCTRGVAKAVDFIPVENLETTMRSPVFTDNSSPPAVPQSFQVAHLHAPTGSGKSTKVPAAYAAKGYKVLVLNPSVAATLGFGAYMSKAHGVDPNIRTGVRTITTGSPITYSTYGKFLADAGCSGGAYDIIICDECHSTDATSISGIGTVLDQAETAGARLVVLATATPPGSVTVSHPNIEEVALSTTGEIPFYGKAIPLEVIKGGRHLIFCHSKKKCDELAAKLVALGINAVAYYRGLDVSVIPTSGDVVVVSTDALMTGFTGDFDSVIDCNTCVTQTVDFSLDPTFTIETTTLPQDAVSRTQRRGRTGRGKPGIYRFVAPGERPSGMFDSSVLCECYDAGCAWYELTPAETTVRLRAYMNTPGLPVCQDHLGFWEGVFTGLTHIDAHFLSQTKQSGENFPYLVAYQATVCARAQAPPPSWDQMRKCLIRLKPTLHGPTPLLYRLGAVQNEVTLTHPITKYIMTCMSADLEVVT

Structure (SMILES) | IC50 [1, 3] | EC50 [2] | IC50 [1]
CC(C)(C)OC(=O)N[C@H]1CCNCC/C=C\[C@@H]2C[C@@]2(C(=O)NS(=O)(=O)C2CC2)NC(=O)[C@@H]2C[C@@H](OC(=O)N3Cc4cccc(F)c4C3)CN2C1=O [Compound 1031] | < 100 nM | < 1000 nM | 
O=C(N[C@H]1CCCCC/C=C\[C@@H]2C[C@@]2(C(=O)NS(=O)(=O)NCC2CC2)NC(=O)[C@@H]2C[C@@H](OC(=O)N3Cc4cccc(F)c4C3)CN2C1=O)OC1CCCC1 [Compound 205] | < 100 nM | < 1000 nM | 
N[C@H]1CCC(F)(F)CC/C=C\[C@@H]2C[C@@]2(C(=O)NS(=O)(=O)C2CC2)NC(=O)[C@@H]2C[C@@H](OC(=O)N3Cc4ccccc4C3)CN2C1=O [Compound 1011] | < 100 nM | < 1000 nM | 
CC(C)(C)OC(=O)N[C@H]1CCCCC/C=C\[C@@H]2C[C@@]2(C(=O)NS(=O)(=O)C2CC2)NC(=O)[C@@H]2C[C@@H](OC(=O)N3CCc4c(F)ccc(F)c4C3)CN2C1=O [Compound 258] | < 100 nM | < 100 nM | 
N[C@H]1CCCCC/C=C\[C@@H]2C[C@@]2(C(=O)NS(=O)(=O)N2CCC(F)(F)C2)NC(=O)[C@@H]2C[C@@H](OC(=O)N3Cc4cccc(Cl)c4C3)CN2C1=O [Compound 222] |  | < 10000 nM | < 100 nM
CC(C)(O)C(=O)N[C@H]1CCCCC/C=C\[C@@H]2C[C@@]2(C(=O)NS(=O)(=O)C2CC2)NC(=O)[C@@H]2C[C@@H](OC(=O)N3Cc4cccc(F)c4C3)CN2C1=O [Compound 246] | < 100 nM | < 1000 nM | 
O=C1N[C@]2(C(=O)NS(=O)(=O)C3CC3)C[C@H]2/C=C\CCCCC[C@H](NCc2ccc(Cl)o2)C(=O)N2C[C@H](OC(=O)N3Cc4cccc(F)c4C3)C[C@@H]12 [Compound 914] | < 100 nM | < 100 nM | 
CC(C)(C)OC(=O)N[C@H]1CCCCC/C=C\[C@@H]2C[C@@]2(C(=O)NS(=O)(=O)C2CC2)NC(=O)[C@@H]2C[C@@H](OC(=O)Nc3nc4ccccc4s3)CN2C1=O [Compound 140] | < 100 nM | < 1000 nM | 
O=C(N[C@H]1CCCCC/C=C\[C@@H]2C[C@@]2(C(=O)NS(=O)(=O)N2CC(F)(F)C2)NC(=O)C2C[C@@H](OC(=O)N3Cc4ccccc4C3)CN2C1=O)OC1CCCC1 (stereo partly shown) [Compound 230] | < 100 nM | < 1000 nM | 
O=C(N[C@H]1CCCCC/C=C\[C@@H]2C[C@@]2(C(=O)NS(=O)(=O)N2CCCC2)NC(=O)[C@@H]2C[C@@H](OC(=O)N3Cc4cccc(F)c4C3)CN2C1=O)OC1CCCC1 [Compound 216] | < 100 nM | < 100 nM | 
O=C1N[C@]2(C(=O)NS(=O)(=O)C3CC3)C[C@H]2/C=C\CCCCC[C@H](NC2CCC2)C(=O)N2C[C@H](OC(=O)N3Cc4cccc(F)c4C3)C[C@@H]12 [Compound 907] | < 100 nM | < 1000 nM | 
CC(C)(C)OC(=O)N[C@H]1CCCCC/C=C\[C@@H]2C[C@@]2(C(=O)NS(=O)(=O)C2CC2)NC(=O)[C@@H]2C[C@@H](OC(=O)N3Cc4cccc(Cl)c4C3)CN2C1=O [Compound 115] | < 100 nM | < 100 nM | 
O=C1N[C@]2(C(=O)NS(=O)(=O)C3CC3)C[C@H]2/C=C\CCCCC[C@H](NCC(F)(F)F)C(=O)N2C[C@H](OC(=O)N3Cc4cccc(F)c4C3)C[C@@H]12 [Compound 921] | < 100 nM | < 1000 nM | 
CC(C)(C)OC(=O)N[C@H]1CCCCC/C=C\[C@@H]2C[C@@]2(C(=O)NS(=O)(=O)C2CC2)NC(=O)C2Cc3cc(Oc4cccc(C(F)(F)F)c4)ccc3CN2C1=O (stereo partly drawn) [Compound 2008, tert-Butyl (1aS,9S,19aR,Z)-19a-(cyclopropylsulfonylcarbamoyl)-10,18-dioxo-15-(3-(trifluoromethyl)phenoxy)-1a,4,5,6,7,8,9,10,12,17,17a,18,19,19a-tetradecahydro-1H-1,14-diaza-bicyclo[13.1.0]hexadeca-1(15), 2-dieno[11,12-b]isoquinolin-9-ylcarbamate] | < 1000 nM | < 10000 nM | 
O=C1N[C@]2(C(=O)NS(=O)(=O)C3CC3)C[C@H]2/C=C\CCCCC[C@H](NCCCC(F)(F)F)C(=O)N2C[C@H](OC(=O)N3Cc4cccc(F)c4C3)C[C@@H]12 [Compound 902] | < 100 nM | < 100 nM | 
O=C(N[C@H]1CCCCC/C=C\[C@@H]2C[C@@]2(C(=O)NS(=O)(=O)N(CC(F)(F)F)CC(F)(F)F)NC(=O)[C@@H]2C[C@@H](OC(=O)N3Cc4cccc(F)c4C3)CN2C1=O)OC1CCCC1 [Compound 224] | < 1000 nM | < 10000 nM | 
O=C1N[C@]2(C(=O)NS(=O)(=O)C3CC3)C[C@H]2/C=C\CCCCC[C@H](NC(=S)N2CCCC2)C(=O)N2C[C@H](OC(=O)N3Cc4cccc(F)c4C3)C[C@@H]12 [Compound 244] | < 100 nM | < 100 nM | 
O=C1N[C@]2(C(=O)NS(=O)(=O)C3CC3)C[C@H]2/C=C\CCCCC[C@H](Nc2nc(-c3ccccc3)cs2)C(=O)N2C[C@H](OC(=O)N3Cc4cccc(Cl)c4C3)C[C@@H]12 [Compound 929] | < 100 nM | < 100 nM | 
CN(Cc1ccccc1)C(=O)O[C@@H]1C[C@H]2C(=O)N[C@]3(C(=O)NS(=O)(=O)C4CC4)C[C@H]3/C=C\CCCCC[C@H](NC(=O)OC(C)(C)C)C(=O)N2C1 [Compound 245] | < 100 nM | < 1000 nM | 
CN(C)c1c(N[C@H]2CCCCC/C=C\[C@@H]3C[C@@]3(C(=O)NS(=O)(=O)C3CC3)NC(=O)[C@@H]3C[C@@H](OC(=O)N4Cc5cccc(F)c5C4)CN3C2=O)c(=O)c1=O [Compound 185] | < 100 nM | < 10000 nM | 
CC(C)(C)OC(=O)N[C@H]1CCOCCCC[C@@H]2C[C@@]2(C(=O)NS(=O)(=O)C2CC2)NC(=O)[C@@H]2C[C@@H](OC(=O)N3Cc4cccc(F)c4C3)CN2C1=O [Compound 1028, (2R,6S,13aR,14aR,16aS)-6-(tert-butoxycarbonylamino)-14a-(cyclopropylsulfonylcarbamoyl)-5,16-dioxohexadecahydro-1H-cyclopropa(j)pyrrolo[1,2-f][1,6,9]oxadiazacyclopentadecin-2-yl 4-fluoroisoindoline-2-carboxylate] | < 100 nM | < 100 nM | 
CN(C)S(=O)(=O)NC(=O)[C@@]12C[C@H]1/C=C\CCCCC[C@H](N)C(=O)N1C[C@H](OC(=O)N3Cc4ccccc4C3)C[C@H]1C(=O)N2 [Compound 202] | < 100 nM | < 10000 nM | 
CC(C)(C)OC(=O)N[C@H]1CCCCC/C=C\[C@@H]2C[C@@]2(C(=O)O)NC(=O)[C@@H]2C[C@@H](OC(=O)N3Cc4ccc(C(F)(F)F)cc4C3)CN2C1=O [Compound 110] | < 1000 nM | < 10000 nM | 
O=C1N[C@]2(C(=O)NS(=O)(=O)C3CC3)C[C@H]2/C=C\CCCCC[C@H](Nc2c(N3CCCCC3)c(=O)c2=O)C(=O)N2C[C@H](OC(=O)N3Cc4cccc(F)c4C3)C[C@@H]12 [Compound 198] | < 100 nM | < 1000 nM | 
CC(C)(C)OC(=O)N[C@H]1CCCCC/C=C\[C@@H]2C[C@@]2(C(=O)NS(=O)(=O)NC2CC2)NC(=O)[C@@H]2C[C@@H](OC(=O)N3Cc4cccc(Cl)c4C3)CN2C1=O [Compound 213] | < 100 nM | < 100 nM | 
COc1cccc(CN[C@H]2CCCCC/C=C\[C@@H]3C[C@@]3(C(=O)NS(=O)(=O)C3CC3)NC(=O)[C@@H]3C[C@@H](OC(=O)N4Cc5cccc(F)c5C4)CN3C2=O)c1 [Compound 906] | < 100 nM | < 100 nM | 
